From the supplement of paper PMC10331698 come the findings set out here.

± gives the standard deviation of the averaged measurements.

What all share (experiment): level (log10 ratio to DMSO vehicle control); higher = higher biomarker level / cell amount than vehicle control
Holding throughout (settings): in DMSO

Compound in experiment [1]: O=P(O)(O)CCC(F)(F)C(F)(F)C(F)(F)C(F)(F)C(F)(F)C(F)(F)F [2-(Perfluorohexyl)ethylphosphonic acid]
The procedure: (§1)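 BioMAP Diversity Plus panel of 12 human primary cell co-culture systems (3C, 4H, LPS, SAg, BT, BF4T, BE3C, CASM3C, HDF3CGF, KF3CT, MyoF, Mphg). Compounds were added 1 h before stimulation and left for 24 h (MyoF 48 h; BT 72 h for soluble read-outs or 6 d for IgG). Biomarkers were read by ELISA, cytotoxicity by SRB, PBMC viability and proliferation by Alamar Blue. Each well value was divided by the mean of 8 DMSO control wells on the same plate and log10 transformed; duplicate blinded samples were tested at 4 concentrations.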

Compound in experiment [2]: OCC(F)(F)C(F)(F)C(F)(F)C(F)(F)C(F)(F)C(F)(F)C(F)(F)C(F)(F)CO [1H,1H,10H,10H-Perfluorodecane-1,10-diol]
The procedure:
as §1

Compound in experiment [3]: OCCCCC(F)(F)C(F)(F)C(F)(F)C(F)(F)F [4:4 Fluorotelomer alcohol]
The protocol: as §1

For lMphg:CD69, the “level (log10)” value in experiment [1] (6700 nM) is -0.045 ± 0.042; in experiment [1] (20000 nM), -0.0285 ± 0.023; in experiment [1] (60000 nM) it was 0.0175 ± 0.053; in experiment [2] (6700 nM) it was -0.003 ± 0.0099; in experiment [2] (20000 nM), -0.019 ± 0.033; in experiment [2] (60000 nM) it was -0.348. In addition, the “level (log10)” value is -0.0475 ± 0.04 in experiment [3] (6700 nM), -0.063 ± 0.018 in experiment [3] (20000 nM) and -0.014 ± 0.045 in experiment [3] (60000 nM).
Turning to KF3CT:TIMP-2, the “level (log10)” value in experiment [1] (6700 nM) was -0.0075 ± 0.012; in experiment [1] (20000 nM) it was 0.011; in experiment [1] (60000 nM), 0.013 ± 0.017; in experiment [2] (6700 nM) it was -0.001 ± 0.011; in experiment [2] (20000 nM), 0.011 ± 0.0099; in experiment [2] (60000 nM) it was -0.133. The “level (log10)” value in experiment [3] (6700 nM) was 0.0135 ± 0.0064; in experiment [3] (20000 nM) it was 0.0075 ± 0.019; in experiment [3] (60000 nM), -0.0015 ± 0.015.
Regarding HDF3CGF:Collagen III, the “level (log10)” value was 0.0135 ± 0.0078 in experiment [1] (6700 nM); 0.0075 ± 0.018 in experiment [1] (20000 nM); -0.0305 ± 0.012 in experiment [1] (60000 nM); -0.035 ± 0.0071 in experiment [2] (6700 nM); -0.094 ± 0.045 in experiment [2] (20000 nM); -0.438 in experiment [2] (60000 nM). The figures for the “level (log10)” value in experiment [3] (6700 nM), in experiment [3] (20000 nM) and in experiment [3] (60000 nM) were -0.0165 ± 0.029, -0.0105 ± 0.019 and 0.011 ± 0.05, respectively.
Regarding KF3CT:CCL2/MCP-1, the “level (log10)” value in experiment [1] (6700 nM) was -0.0405 ± 0.019; in experiment [1] (20000 nM), -0.0515 ± 0.023; in experiment [1] (60000 nM), -0.043 ± 0.013; in experiment [2] (6700 nM) it was -0.028 ± 0.021; in experiment [2] (20000 nM), -0.024 ± 0.016; in experiment [2] (60000 nM), -0.272. For the same test system, the entries for the “level (log10)” value in experiment [3] (6700 nM), in experiment [3] (20000 nM) and in experiment [3] (60000 nM) were -0.0035 ± 0.057, 0.004 ± 0.044 and 0.0225 ± 0.042, respectively.
Consider HDF3CGF:TIMP-1, for which the “level (log10)” value in experiment [1] (6700 nM) was -0.0115 ± 0.018; in experiment [1] (20000 nM), 0.0035 ± 0.005; in experiment [1] (60000 nM), 0.0545 ± 0.06; in experiment [2] (6700 nM), 0.0025 ± 0.0078; in experiment [2] (20000 nM) it was 0.0135 ± 0.0092; in experiment [2] (60000 nM), -0.307. Also, the entries for the “level (log10)” value in experiment [3] (6700 nM), in experiment [3] (20000 nM) and in experiment [3] (60000 nM) were -0.006 ± 0.017, -0.001 ± 0.034 and 0.02 ± 0.057, respectively.
Turning to HDF3CGF:CD106/VCAM-1, the “level (log10)” value in experiment [1] (6700 nM) was 0.041 ± 0.013; in experiment [1] (20000 nM) it was 0.0625 ± 0.013; in experiment [1] (60000 nM), 0 ± 0.0057; in experiment [2] (6700 nM), -0.038 ± 0.016; in experiment [2] (20000 nM), -0.0995 ± 0.073; in experiment [2] (60000 nM) it was -0.322. The “level (log10)” value was -0.028 ± 0.083 in experiment [3] (6700 nM), -0.0125 ± 0.04 in experiment [3] (20000 nM) and -0.0215 ± 0.0021 in experiment [3] (60000 nM).
With MyoF:alpha-SM Actin, the “level (log10)” value in experiment [1] (6700 nM) was 0.037 ± 0.079; in experiment [1] (20000 nM) it was 0.0415 ± 0.067; in experiment [1] (60000 nM), 0.0575 ± 0.063; in experiment [2] (6700 nM) it was -0.0025 ± 0.019; in experiment [2] (20000 nM), -0.041 ± 0.03; in experiment [2] (60000 nM) it was -0.395. Also, the results for the “level (log10)” value in experiment [3] (6700 nM), in experiment [3] (20000 nM) and in experiment [3] (60000 nM) were 0.025 ± 0.041, 0.0195 ± 0.04 and 0.041 ± 0.055, respectively.
On to CASM3C:CD142/Tissue Factor, for which the “level (log10)” value in experiment [1] (6700 nM) is -0.0165 ± 0.0064; in experiment [1] (20000 nM), -0.007 ± 0.014; in experiment [1] (60000 nM) it was -0.033 ± 0.0071; in experiment [2] (6700 nM), -0.0275 ± 0.015; in experiment [2] (20000 nM), -0.02 ± 0.0042; in experiment [2] (60000 nM) it was -0.033. The “level (log10)” value in experiment [3] (6700 nM) was -0.0265 ± 0.015; in experiment [3] (20000 nM) it was -0.0055 ± 0.0064; in experiment [3] (60000 nM) it was 0.0285 ± 0.018.
On to CASM3C:CXCL9/MIG, for which the “level (log10)” value in experiment [1] (6700 nM) was 0.0095 ± 0.025; in experiment [1] (20000 nM), 0.005 ± 0.033; in experiment [1] (60000 nM), 0.0335 ± 0.066; in experiment [2] (6700 nM) it was -0.001; in experiment [2] (20000 nM), -0.0035 ± 0.005; in experiment [2] (60000 nM) it was -0.039. In addition, the “level (log10)” value in experiment [3] (6700 nM) was 0.0115 ± 0.0035; in experiment [3] (20000 nM), 0.0065 ± 0.026; in experiment [3] (60000 nM) it was 0.0345 ± 0.059.
As for lMphg:CD62E/E-Selectin, the “level (log10)” value in experiment [1] (6700 nM) is -0.015 ± 0.013; in experiment [1] (20000 nM) it was -0.017 ± 0.0042; in experiment [1] (60000 nM), 0.075 ± 0.0085; in experiment [2] (6700 nM), -0.0175 ± 0.005; in experiment [2] (20000 nM), -0.102 ± 0.11; in experiment [2] (60000 nM), -0.8. Further, the “level (log10)” value in experiment [3] (6700 nM) is -0.0275 ± 0.018; in experiment [3] (20000 nM), -0.012 ± 0.018; in experiment [3] (60000 nM), -0.0195 ± 0.04.
For CASM3C:CD87/uPAR, the “level (log10)” value was -0.0295 ± 0.022 in experiment [1] (6700 nM); -0.025 ± 0.014 in experiment [1] (20000 nM); -0.002 ± 0.0071 in experiment [1] (60000 nM); -0.024 ± 0.016 in experiment [2] (6700 nM); -0.033 ± 0.031 in experiment [2] (20000 nM); -0.116 in experiment [2] (60000 nM). The “level (log10)” value in experiment [3] (6700 nM) was -0.009 ± 0.028; in experiment [3] (20000 nM), -0.0135 ± 0.029; in experiment [3] (60000 nM) it was -0.0045 ± 0.025.
As to KF3CT:CXCL9/MIG, the “level (log10)” value was 0.0055 ± 0.0021 in experiment [1] (6700 nM); -0.001 ± 0.0099 in experiment [1] (20000 nM); 0.006 ± 0.0071 in experiment [1] (60000 nM); -0.0055 ± 0.0092 in experiment [2] (6700 nM); -0.0085 ± 0.005 in experiment [2] (20000 nM); -0.195 in experiment [2] (60000 nM). The “level (log10)” value is 0.007 ± 0.023 in experiment [3] (6700 nM), 0.0105 ± 0.011 in experiment [3] (20000 nM) and 0.0125 ± 0.022 in experiment [3] (60000 nM).
Take CASM3C:HLA-DR: the “level (log10)” value in experiment [1] (6700 nM) is 0.0045 ± 0.015; in experiment [1] (20000 nM), 0.015 ± 0.023; in experiment [1] (60000 nM), 0.0345 ± 0.046; in experiment [2] (6700 nM), -0.0185 ± 0.0078; in experiment [2] (20000 nM) it was -0.0275 ± 0.0064; in experiment [2] (60000 nM) it was -0.065. Further, the results for the “level (log10)” value in experiment [3] (6700 nM), in experiment [3] (20000 nM) and in experiment [3] (60000 nM) were -0.0045 ± 0.019, -0.015 ± 0.0042 and 0.019 ± 0.027, respectively.
